Legend:
[1] = Drug concentration in C57BL/6 mouse plasma at 3 mg/kg, po measured after 3 hrs; format: ADME, organism-based
[2] = AUC(0 to t) in cynomolgus monkey at 0.1 mg/kg, iv measured upto 24 hrs by LC/MS/MS analysis; format: ADME, organism-based, Macaca fascicularis; set-up: dose 0.1 mg/kg, time < 24 hrs, route iv; details: in vivo
[3] = In vivo inhibition of phosphorylation of S6 at serine 240/244 residues in C57BL/6 mouse brain at 30 mg/kg, po measured after 24 hrs by Western blotting analysis; format: organism-based
[4] = Drug concentration in C57BL/6 mouse plasma at 3 mg/kg, po measured after 24 hrs; format: ADME, organism-based
[5] = In vivo inhibition of phosphorylation of AKT at serine 473 residues in C57BL/6 mouse brain at 30 mg/kg, po measured after 24 hrs by Western blotting analysis; format: organism-based
[6] = Drug concentration in C57BL/6 mouse plasma at 1 mg/kg, po measured after 1 hr; format: ADME, organism-based
[7] = Clearance in C57BL/6 mouse at 1 mg/kg, iv and 3 mg/kg, ip measured upto 24 hrs by HPLC-MS analysis; format: ADME, organism-based; details: in vivo
[8] = In vivo inhibition of phosphorylation of S6 at serine 240/244 residues in C57BL/6 mouse brain at 10 to 30 mg/kg, po measured after 1 to 3 hrs by Western blotting analysis; format: organism-based; details: dose lower 10 mg/kg, time lower 1 hrs, dose upper 30 mg/kg, time upper 3 hrs
[9] = Half life in Beagle dog at 1 mg/kg, po and 0.3 mg/kg, iv measured upto 24 hrs by LC/MS/MS analysis; format: ADME, organism-based, Canis lupus familiaris; details: in vivo
[10] = AUC(0 to t) in cynomolgus monkey at 0.3 mg/kg, po measured upto 24 hrs by LC/MS/MS analysis; format: ADME, organism-based, Macaca fascicularis; set-up: dose 0.3 mg/kg, time < 24 hrs, route po; details: in vivo

concentration at 3 h [1] [nM]	AUC(0-t) at 24 h [2] [µM·h]	inhibition (INH) [3]	concentration at 24 h [4] [nM]	inhibition (INH) [5]	concentration at 1 h [6] [nM]	clearance [7] [mL/min/kg]	inhibition (INH) [8]	half-life [9] [h]	AUC(0-t) at 24 h [10] [µM·h]	SMILES
2050	0.34	Active	6	Active	766	–	–	–	–	C[C@@H]1COCCN1c1cc(N2CCOC[C@@H]2C)nc2[nH]c(-c3cscn3)nc12
–	–	–	–	–	–	19	Active	1.9	0.125	C[C@@H]1COCCN1c1cc(N2CCOC[C@@H]2C)nc2[nH]c(-c3ccccn3)nc12
